Here are results for 25 compounds from patent US11780826B2 (Amgen Inc., priority 2017, dated 2023).

This assay has as its system Bovine cardiac myofibrils. Put plainly: In vitro model of dose-dependent myofibril ATPase modulation (AC1.4, pyruvate kinase/lactate dehydrogenase-coupled ATPase assay at pCa25). Type of assay: biochemical. To be noted: concentration at which ATPase activity was 1.4-fold higher than the bottom of the dose curve, mean of a minimum of two independent tests. The procedure, abridged:
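Bovine cardiac myofibrils, detergent-treated; 0.25-1.0 mg/ml. Buffer: K-PIPES 12 mM, MgCl2 2 mM, DTT 1 mM, BSA 0.1 mg/ml, pH 6.80, 22° C; Ca2+ set by EGTA/CaCl2. ATP 1 mM, NADH/PEP-coupled, A340. 4-parameter fit; n≥2.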
Consider `O=C(c1ccccc1)c1cccc(C(=O)N2[C@@H](C(=O)N[C@@H](c3cc(F)c(Cl)cc3F)C3CC3)C[C@H]3C[C@H]32)c1` [Example 608, (1R,3R,5R)-2-(3-benzoylbenzoyl)-N-((R)-(4-chloro-2,5-difluorophenyl)(cyclopropyl)methyl)-2-azabicyclo[3.1.0]hexane-3-carboxamide], for which the AC1.4 was 3.7405 µM. Next, `CCS(=O)(=O)c1cccc(C(=O)N2[C@@H](C(=O)N[C@@H](c3cc(F)c(Cl)cc3F)[C@H](C)O)C[C@H]3C[C@H]32)c1` [Example 395, (1R,3R,5R)-N-((1S,2S)-1-(4-chloro-2,5-difluorophenyl)-2-hydroxypropyl)-2-(3-(ethylsulfonyl)benzoyl)-2-azabicyclo[3.1.0]hexane-3-carboxamide]: 1.361 µM; `CCS(=O)(=O)c1cccc(C(=O)N2[C@@H](C(=O)N[C@@H](c3cc(F)c(Cl)cc3F)C3COC3)C[C@H]3C[C@H]32)c1` [Example 66, (1R,3R,5R)-N-((R)-(4-chloro-2,5-difluorophenyl)(3-oxetanyl)methyl)-2-(3-(ethylsulfonyl)benzoyl)-2-azabicyclo[3.1.0]hexane-3-carboxamide]: 0.0766 µM.

`N#CC1(F)CN(S(=O)(=O)N2CCC[C@H](C(=O)N3CCC[C@@H]3C(=O)NCc3ccc(C(F)(F)F)cc3F)C2)C1` [Example 327, 1-(((3S)-1-((3-cyano-3-fluoro-1-azetidinyl)sulfonyl)-3-piperidinyl)carbonyl)-N-(2-fluoro-4-(trifluoromethyl)benzyl)-D-prolinamide] showed an AC1.4 of 0.8893 µM.

As for `CS(=O)(=O)c1cc(C(=O)N2[C@@H](C(=O)N[C@@H](c3ccc(C(F)(F)F)c(F)c3)C3CC3)C[C@H]3C[C@H]32)ccn1` [Example 665, (1R,3R,5R)-N-((R)-cyclopropyl(3-fluoro-4-(trifluoromethyl)phenyl)methyl)-2-((2-(methylsulfonyl)-4-pyridinyl)carbonyl)-2-azabicyclo[3.1.0]hexane-3-carboxamide], the AC1.4 came out at 4.554 µM. As to `COc1ccc([C@H](NC(=O)[C@H]2CCCN2C(=O)[C@H]2CCCN(S(=O)(=O)N3CC(C#N)C3)C2)C(F)(F)F)cc1F` [Example 776, 1-(((3S)-1-((3-cyano-1-azetidinyl)sulfonyl)-3-piperidinyl)carbonyl)-N-((1S)-2,2,2-trifluoro-1-(3-fluoro-4-methoxyphenyl)ethyl)-D-prolinamide], the AC1.4 was determined as 8.3695 µM. Take `O=C(N[C@@H](c1ccc(C(F)(F)F)cc1F)C1COC1)[C@H]1C[C@H]2C[C@H]2N1C(=O)c1cc(C2CC2)ccn1` [Example 718, (1R,3R,5R)-2-((4-cyclopropyl-2-pyridinyl)carbonyl)-N-((R)-(2-fluoro-4-(trifluoromethyl)phenyl)(3-oxetanyl)methyl)-2-azabicyclo[3.1.0]hexane-3-carboxamide]: the AC1.4 was determined as 6.2625 µM. Under `CC(=O)N1CC(NS(=O)(=O)N2CCC[C@H](C(=O)N3CCC[C@@H]3C(=O)NCc3ccc(C(F)(F)F)cc3)C2)C1` [Example 806, 1-(((3S)-1-((l-acetyl-3-azetidinyl)sulfamoyl)-3-piperidinyl)carbonyl)-N-(4-(trifluoromethyl)benzyl)-D-prolinamide] stands 10 µM. `COC(=O)C1CC(S(=O)(=O)N2CCC[C@H](C(=O)N3CCC[C@@H]3C(=O)NCc3ccc(C(F)(F)F)cc3)C2)C1` (stereo partly drawn) [Example 518, methyl3-(((S)-3-((R)-2-((4-(trifluoromethyl)benzyl)carbamoyl)pyrrolidine-1-carbonyl)piperidin-1-yl)sulfonyl)cyclobutanecarboxylate] displayed an AC1.4 of 2.457 µM. `O=C(N[C@@H](c1ccc(C(F)(F)F)c(F)c1)C1CC1)[C@H]1C[C@H]2C[C@H]2N1C(=O)c1cccc(S(=O)(=O)C2CC2)c1` [Example 310, (1R,3R,5R)—N—((R)-cyclopropyl(3-fluoro-4-(trifluoromethyl)phenyl)methyl)-2-(3-(cyclopropylsulfonyl)benzoyl)-2-azabicyclo[3.1.0]hexane-3-carboxamide] gave an AC1.4 of 0.8061 µM. Under `N#CC1CN(S(=O)(=O)c2cccc(C(=O)N3CCC[C@@H]3C(=O)N[C@@H](CO)c3cccc(C(F)(F)F)c3)c2)C1` [Example 386, 1-(3-((3-cyano-1-azetidinyl)sulfonyl)benzoyl)-N-((1R)-2-hydroxy-1-(3-(trifluoromethyl)phenyl)ethyl)-D-prolinamide] stands 1.3335 µM; under `CN(C)S(=O)(=O)c1cccc(C(=O)N2CCC[C@@H]2C(=O)N[C@H](CO)c2ccc(C(F)(F)F)cc2)c1` [Example 678, 1-(3-(dimethylsulfamoyl)benzoyl)-N-((1S)-2-hydroxy-1-(4-(trifluoromethyl)phenyl)ethyl)-D-prolinamide], 4.993 µM; under `C[C@@H](NC(=O)[C@H]1CCCN1C(=O)c1cccc(S(=O)(=O)N2CC(C)(O)C2)c1)c1ccc(C(F)(F)F)cc1` [Example 466, 1-(3-((3-hydroxy-3-methyl-1-azetidinyl)sulfonyl)benzoyl)-N-((1R)-1-(4-(trifluoromethyl)phenyl)ethyl)-D-prolinamide], 1.961 µM. Compound `CC(C)[C@H](NC(=O)[C@H]1CCCN1C(=O)[C@H]1CCCN(S(=O)(=O)N2CC(C#N)C2)C1)c1ccc(C(F)(F)F)cc1F` [Example 229, 1-(((3S)-1-((3-cyano-1-azetidinyl)sulfonyl)-3-piperidinyl)carbonyl)-N-((1S)-1-(2-fluoro-4-(trifluoromethyl)phenyl)-2-methylpropyl)-D-prolinamide] came in with an AC1.4 of 0.5053 µM.

As for `CC[C@H](NC(=O)[C@H]1CCCN1C(=O)[C@H]1CCCN(S(=O)(=O)N2CC(C#N)C2)C1)c1cc(F)cc(F)c1` [Example 468, 1-(((3S)-1-((3-cyano-1-azetidinyl)sulfonyl)-3-piperidinyl)carbonyl)-N-((1S)-1-(3,5-difluorophenyl)propyl)-D-prolinamide], the AC1.4 came to 1.9855 µM. Under `C#CCN(C)S(=O)(=O)c1cccc(C(=O)N2CCC[C@@H]2C(=O)N[C@H](C)c2ccc(C(F)(F)F)cc2)c1` [Example 749, 1-(3-(methyl(2-propyn-1-yl)sulfamoyl)benzoyl)-N-((1R)-1-(4-(trifluoromethyl)phenyl)ethyl)-D-prolinamide] stands 7.3175 µM. Take `CS(=O)(=O)C1CN(S(=O)(=O)N2CCC[C@H](C(=O)N3CCC[C@@H]3C(=O)NCc3cc(F)cc(F)c3)C2)C1` [Example 429, N-(3,5-difluorobenzyl)-1-(((3S)-1-((3-(methylsulfonyl)-1-azetidinyl)sulfonyl)-3-piperidinyl)carbonyl)-D-prolinamide]: the AC1.4 turned out to be 1.6075 µM.

For `O=C(N[C@@H](c1cc(F)c(Cl)cc1F)C1CC1)[C@H]1C[C@H]2C[C@H]2N1C(=O)c1ccnc(S(=O)(=O)C2CC2)c1` [Example 295, (1R,3R,5R)-N-((R)-(4-chloro-2,5-difluorophenyl)(cyclopropyl)methyl)-2-((2-(cyclopropylsulfonyl)-4-pyridinyl)carbonyl)-2-azabicyclo[3.1.0]hexane-3-carboxamide], the AC1.4 is 0.7671 µM.

Take `O=C(NCc1ccc(C(F)(F)F)cc1)[C@H]1CCCN1C(=O)[C@H]1CCCN(S(=O)(=O)N2CC(OCc3ccc(Cl)cc3)C2)C1` [Example 210, 1-(((3S)-1-((3-((4-chlorobenzyl)oxy)-1-azetidinyl)sulfonyl)-3-piperidinyl)carbonyl)-N-(4-(trifluoromethyl)benzyl)-D-prolinamide]: the AC1.4 worked out at 0.4487 µM.

For the compound `O=C(N[C@@H](c1ccc(C(F)(F)F)cc1F)C1CC1)[C@H]1C[C@H]2C[C@H]2N1C(=O)c1cccc(S(=O)(=O)CCO)c1` [Example 249, (1R,3R,5R)-N-((R)-cyclopropyl(2-fluoro-4-(trifluoromethyl)phenyl)methyl)-2-(3-((2-hydroxyethyl)sulfonyl)benzoyl)-2-azabicyclo[3.1.0]hexane-3-carboxamide], the AC1.4 came to 0.5932 µM.

As to `CC[C@@H](NC(=O)[C@H]1CCCN1C(=O)c1cccc(S(C)(=O)=O)c1)c1cc(F)c(Cl)cc1F` [Example 453, N-((1R)-1-(4-chloro-2,5-difluorophenyl)propyl)-1-(3-(methylsulfonyl)benzoyl)-D-prolinamide], the AC1.4 came out at 1.5515 µM.

Take `O=C(N[C@@H](c1cc(F)c(C(F)(F)F)cc1F)C1CC1)[C@H]1C[C@H]2C[C@H]2N1C(=O)c1cccc(C(F)(F)F)c1` [Example 115, (1R,3R,5R)-N-((R)-cyclopropyl(2,5-difluoro-4-(trifluoromethyl)phenyl)methyl)-2-(3-(trifluoromethyl)benzoyl)-2-azabicyclo[3.1.0]hexane-3-carboxamide]: the AC1.4 stood at 0.1774 µM. `O=C(NCc1ccc(C(F)(F)F)cc1)[C@H]1CCCN1C(=O)[C@H]1CCCN(S(=O)(=O)N2CC(C3CCOC3)C2)C1` (stereo partly drawn) [Example 739, (2R)-1-((3S)-1-((3-(tetrahydrofuran-3-yl)azetidin-l-yl)sulfonyl)piperidine-3-carbonyl)-N-(4-(trifluoromethyl)benzyl)pyrrolidine-2-carboxamide] had an AC1.4 of 7.1325 µM. Next, `Cc1ccc([C@H](NC(=O)[C@H]2C[C@H](F)CN2C(=O)c2cccc(S(C)(=O)=O)c2)C2CC2)cc1F` [Example 792, (4S)-N-((R)-cyclopropyl(3-fluoro-4-methyIphenyl)methyl)-4-fluoro-1-(3-(methylsulfonyl)benzoyl)-D-prolinamide]: 9.071 µM; `O=C(NCc1ccc(C(F)(F)F)cc1)[C@H]1CCCN1C(=O)c1cccc(S(=O)(=O)N2CC(F)(F)C2)c1` [Example 461, 1-((3-((3,3-difluoro-1-azetidinyl)sulfonyl)phenyl)carbonyl)-N-(4-(trifluoromethyl)benzyl)-D-prolinamide]: 1.9174 µM.
